In patent US20040024024A1, “Aromatic sulfone hydroxamates and their use as protease inhibitors” (priority 2001, published 2004):

Key:
Human recombinant MMP-2 = molecular target: T1, Human recombinant MMP-2 (Homo sapiens, UniProt P08253); assay: In vitro MMP inhibition, IC50 determination (fluorogenic substrate I); assay type: biochemical
T1 construct: made in house; host or cells: MMP-2-transfected p2AHT2 cells
T1 sequence (P08253 110-660): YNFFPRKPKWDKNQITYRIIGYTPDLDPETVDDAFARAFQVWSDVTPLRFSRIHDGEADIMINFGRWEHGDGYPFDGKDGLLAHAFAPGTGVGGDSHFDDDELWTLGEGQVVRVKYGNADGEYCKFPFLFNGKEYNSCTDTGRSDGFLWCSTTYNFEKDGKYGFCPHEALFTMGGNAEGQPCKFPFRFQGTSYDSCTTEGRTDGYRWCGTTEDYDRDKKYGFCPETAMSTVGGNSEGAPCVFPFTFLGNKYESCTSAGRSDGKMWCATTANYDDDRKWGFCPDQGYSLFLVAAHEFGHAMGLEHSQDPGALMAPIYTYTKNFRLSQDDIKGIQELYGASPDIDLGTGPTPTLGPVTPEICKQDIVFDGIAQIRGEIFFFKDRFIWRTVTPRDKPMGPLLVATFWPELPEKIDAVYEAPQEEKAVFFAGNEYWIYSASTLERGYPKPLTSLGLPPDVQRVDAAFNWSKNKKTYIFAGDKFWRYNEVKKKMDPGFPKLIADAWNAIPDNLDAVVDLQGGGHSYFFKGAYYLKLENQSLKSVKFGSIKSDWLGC
In short: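 IC50 was derived from the concentration-dependent fall in fluorescence (ex 328, em 415 nm) on Gly-Leu cleavage of 4 μM MCA/Dpa-quenched substrate I. Assays ran at room temperature in pH 7.5 Tris/NaCl/CaCl2/Brij buffer with MMP-2 activated by trypsin or APMA; inhibitors were diluted from 1% DMSO stocks.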

Human recombinant MMP-13 = molecular target: T2, Human recombinant MMP-13 (Homo sapiens, UniProt P45452); assay: as above; assay type: biochemical
T2 construct: made in house; host or cells: baculovirus / insect cells
In short: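 Fluorescence at 415 nm (excitation 328 nm) reports Gly-Leu cleavage of 4 μM quenched methoxycoumarin peptide substrate I. Human recombinant MMP-13, activated by trypsin or APMA, was incubated at room temperature with varied inhibitor concentrations in pH 7.5 Tris/NaCl/CaCl2 buffer; IC50 derived from reduced fluorescence.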

[1] = value outside parentheses (Ki in parenthesis)

Row | IC50 (Human recombinant MMP-2; [1]) | IC50 (Human recombinant MMP-13; [1]) | IC50 (Human recombinant MMP-2; value outside parentheses) | IC50 (Human recombinant MMP-13; value outside parentheses) | SMILES
1 | – | – | 0.0373 µM | 0.0047 µM | CC(C)(C)c1cccc(NC(=O)CCCOc2ccc(S(=O)(=O)C3(C(=O)NO)CCOCC3)cc2)c1 [Example 572]
2 | – | – | 1.71 µM | 0.0751 µM | O=C(NO)C1(S(=O)(=O)c2ccc(OCCCc3cc(C(F)(F)F)cc(C(F)(F)F)c3)cc2)CCOCC1 [Example 573]
3 | – | – | 0.0084 µM | 0.002 µM | O=C(NO)C1(S(=O)(=O)c2ccc(OCCCc3cccnc3)cc2)CCOCC1 [Example 575]
4 | – | – | 0.0482 µM | 0.0012 µM | O=C(CCCOc1ccc(S(=O)(=O)C2(C(=O)NO)CCOCC2)cc1)N1CCc2ccccc21 [Example 577]
5 | – | – | 0.0157 µM | 0.0016 µM | CC(C)Oc1cccc(NC(=O)CCCOc2ccc(S(=O)(=O)C3(C(=O)NO)CCOCC3)cc2)c1 [Example 583]
6 | – | – | 0.0854 µM | 0.004 µM | COc1cc(CCCOc2ccc(S(=O)(=O)C3(C(=O)NO)CCOCC3)cc2)cc(OC)c1 [Example 585]
7 | – | – | 0.0101 µM | 0.0006 µM | CC(=O)c1cccc(CCCOc2ccc(S(=O)(=O)C3(C(=O)NO)CCOCC3)cc2)c1 [Example 586]
8 | – | – | 0.0949 µM | 0.015 µM | COc1ccc(C(=N)NCCCOc2ccc(S(=O)(=O)C3(C(=O)NO)CCOCC3)cc2)cc1 [Example 588]
9 | – | – | 0.0099 µM | 0.0004 µM | O=C(NCCOc1ccc(S(=O)(=O)C2(C(=O)NO)CCOCC2)cc1)c1nc2ccccc2s1 [Example 589]
10 | – | – | 0.858 µM | 0.048 µM | O=C(NO)C1(S(=O)(=O)c2ccc(OCCn3nnc4ccccc4c3=O)cc2)CCOCC1 [Example 590]
11 | – | – | 0.336 µM | 0.0387 µM | Cn1c(C(=O)NCCOc2ccc(S(=O)(=O)C3(C(=O)NO)CCOCC3)cc2)cc2ccccc21 [Example 592]
12 | – | – | 0.0065 µM | 0.0156 µM | O=C(NCCSc1ccc(S(=O)(=O)C2(C(=O)NO)CCOCC2)cc1)c1cc2ccccc2[nH]1 [Example 593]
13 | – | – | 0.14 µM | 0.0038 µM | O=C(NO)C1(S(=O)(=O)c2ccc(OCCc3cccc(N4CCCCC4)c3)cc2)CCOCC1 [Example 594]
14 | – | – | 0.471 µM | 0.0121 µM | O=C(NCCSc1ccc(S(=O)(=O)C2(C(=O)NO)CCOCC2)cc1)c1cc2ccccc2s1 [Example 597]
15 | – | – | 0.206 µM | 0.214 µM | N=C(NCCOc1ccc(S(=O)(=O)C2(C(=O)NO)CCOCC2)cc1)c1ccccc1 [Example 600]
16 | – | – | 0.0137 µM | 0.0036 µM | COc1cccc(CC(=O)NCCOc2ccc(S(=O)(=O)C3(C(=O)NO)CCOCC3)cc2)c1 [Example 602]
17 | – | – | 0.034 µM | 0.0024 µM | COc1ccc(S(=O)(=O)NCCOc2ccc(S(=O)(=O)C3(C(=O)NO)CCOCC3)cc2)cc1 [Example 603]
18 | – | – | 0.0366 µM | 0.0033 µM | O=C(NCCOc1ccc(S(=O)(=O)C2(C(=O)NO)CCOCC2)cc1)c1ccc(-c2ccccc2)cc1 [Example 604]
19 | – | – | 0.044 µM | 0.0038 µM | O=C(NCCSc1ccc(S(=O)(=O)C2(C(=O)NO)CCOCC2)cc1)c1ccc(-c2ccc(O)cc2)cc1 [Example 605]
20 | – | – | 0.488 µM | 0.0041 µM | O=C(NCCOc1ccc(S(=O)(=O)C2(C(=O)NO)CCOCC2)cc1)c1ccc(-c2cccc(C(F)(F)F)c2)o1 [Example 610]
21 | – | – | 0.733 µM | 0.0136 µM | O=C(NCCOc1ccc(S(=O)(=O)C2(C(=O)NO)CCOCC2)cc1)c1ccc(-c2cc(C(F)(F)F)ccc2Cl)o1 [Example 611]
22 | – | – | 1.23 µM | 0.0161 µM | CC(C)CCCc1cccc(CCCOc2ccc(S(=O)(=O)C3(C(=O)NO)CCOCC3)cc2)c1 [Example 612]
23 | – | – | 0.0343 µM | 0.0066 µM | CN(C)c1cccc(CCCOc2ccc(S(=O)(=O)C3(C(=O)NO)CCN(C4CC4)CC3)cc2)c1 [Example 613]
24 | – | – | 0.822 µM | 0.0275 µM | O=C(Cc1ccc(-c2ccc(Cl)cc2)s1)NCCOc1ccc(S(=O)(=O)C2(C(=O)NO)CCOCC2)cc1 [Example 618]
25 | – | – | 0.0662 µM | 0.0015 µM | O=C(NCCOc1ccc(S(=O)(=O)C2(C(=O)NO)CCOCC2)cc1)c1cc2ccccc2s1 [Example 619]
26 | – | – | 0.0162 µM | 0.0041 µM | O=C(NCCOc1ccc(S(=O)(=O)C2(C(=O)NO)CCOCC2)cc1)c1ccc(Br)s1 [Example 620]

Continued, compound first:

Row | SMILES | IC50 (Human recombinant MMP-2; [1]) | IC50 (Human recombinant MMP-13; [1]) | IC50 (Human recombinant MMP-2; value outside parentheses) | IC50 (Human recombinant MMP-13; value outside parentheses)
27 | CC(=O)N1CC[C@@H](Oc2ccc(S(=O)(=O)C3(C(=O)NO)CCOCC3)cc2)C1 [Example 427] | 0.251 µM | 0.114 µM | – | –
28 | COc1ccc(S(=O)(=O)CCCCOc2ccc(S(=O)(=O)C3(C(=O)NO)CCOCC3)cc2)cc1 [Example 428] | 0.02 µM | 0.0014 µM | – | –
29 | COc1ccc(SCC(C)(C)COc2ccc(S(=O)(=O)C3(C(=O)NO)CCOCC3)cc2)cc1 [Example 430] | 2.7 µM | 0.195 µM | – | –
30 | COc1ccc(S(=O)(=O)C[C@@H](C)COc2ccc(S(=O)(=O)C3(C(=O)NO)CCOCC3)cc2)cc1 [Example 431] | 0.115 µM | 0.004 µM | – | –
31 | COc1ccc(SC[C@@H](C)COc2ccc(S(=O)(=O)C3(C(=O)NO)CCOCC3)cc2)cc1 [Example 432] | 0.007 µM | 0.0015 µM | – | –
32 | COc1ccc(S(=O)(=O)C[C@H](C)COc2ccc(S(=O)(=O)C3(C(=O)NO)CCOCC3)cc2)cc1 [Example 433] | 0.22 µM | 0.007 µM | – | –
33 | COc1ccc(SC[C@H](C)COc2ccc(S(=O)(=O)C3(C(=O)NO)CCOCC3)cc2)cc1 [Example 434] | 0.0011 µM | 0.0006 µM | – | –
34 | O=C(NO)C1(S(=O)(=O)c2ccc(OCCCOc3ccccc3C(F)(F)F)cc2)CCOCC1 [Example 444] | 0.0089 µM | 0.0076 µM | – | –
35 | CCCCOc1ccc(OCCCOc2ccc(S(=O)(=O)C3(C(=O)NO)CCOCC3)cc2)cc1 [Example 446] | 0.076 µM | 0.0066 µM | – | –
36 | O=C(NO)C1(S(=O)(=O)c2ccc(OCCCCO)cc2)CCOCC1 [Example 451] | 0.0047 µM | 0.009 µM | – | –
37 | O=C(NO)C1(S(=O)(=O)c2ccc(OCCCCCO)cc2)CCOCC1 [Example 452] | 0.0022 µM | 0.0148 µM | – | –
38 | COCC(C)(C)COc1ccc(S(=O)(=O)C2(C(=O)NO)CCOCC2)cc1 [Example 455] | 0.9 µM | 0.69 µM | – | –
39 | CCOCC(C)(C)COc1ccc(S(=O)(=O)C2(C(=O)NO)CCOCC2)cc1 [Example 456] | 0.425 µM | 0.35 µM | – | –
40 | O=C(NO)C1(S(=O)(=O)c2ccc(OCCCCCc3ccc4ccccc4c3)cc2)CCOCC1 [Example 464] | 0.046 µM | 0.0014 µM | – | –
41 | C=CCCCOc1ccc(S(=O)(=O)C2(C(=O)NO)CCOCC2)cc1 [Example 481] | 0.0013 µM | 0.002 µM | – | –
42 | COC(=O)c1ccccc1S(=O)(=O)N1CC(Oc2ccc(S(=O)(=O)C3(C(=O)NO)CCOCC3)cc2)C1 [Example 482] | 3.3 µM | 0.04 µM | – | –
43 | COc1ccc(OC)c(S(=O)(=O)N2CC(Oc3ccc(S(=O)(=O)C4(C(=O)NO)CCOCC4)cc3)C2)c1 [Example 484] | 0.64 µM | 0.012 µM | – | –
44 | COc1ccc(OC)c(S(=O)(=O)NCC(CCl)Oc2ccc(S(=O)(=O)C3(C(=O)NO)CCOCC3)cc2)c1 (stereo not drawn) [Example 485] | 4 µM | 0.064 µM | – | –
45 | COc1cc2c(cc1OC)CN(C(=O)NCCCOc1ccc(S(=O)(=O)C3(C(=O)NO)CCOCC3)cc1)CC2 [Example 496] | – | – | 0.242 µM | 0.0084 µM
46 | O=C(NCCCOc1ccc(S(=O)(=O)C2(C(=O)NO)CCOCC2)cc1)N1CCOCC1 [Example 497] | – | – | 1.45 µM | 0.0235 µM
47 | COc1ccc(NC(=O)NCCCOc2ccc(S(=O)(=O)C3(C(=O)NO)CCOCC3)cc2)c(C)c1 [Example 498] | – | – | 0.16 µM | 0.0148 µM
48 | O=C(NO)C1(S(=O)(=O)c2ccc(OCCc3cccc(-c4cncnc4)c3)cc2)CCOCC1 [Example 521] | – | – | 0.062 µM | 0.0058 µM
49 | CCN1CCC(C(=O)NO)(S(=O)(=O)c2ccc(OCCCSc3nc4ccccc4o3)cc2)CC1 [Example 525] | – | – | 0.0075 µM | 0.0015 µM
50 | O=C(Cc1nn[nH]n1)NCCOc1ccc(S(=O)(=O)C2(C(=O)NO)CCOCC2)cc1 [Example 564] | – | – | 0.145 µM | 0.0194 µM
51 | O=C(Cc1nnn(Cc2ccccc2)n1)NCCOc1ccc(S(=O)(=O)C2(C(=O)NO)CCOCC2)cc1 [Example 565] | – | – | 0.014 µM | 0.0016 µM
52 | Cn1cnc(CC(=O)NCCOc2ccc(S(=O)(=O)C3(C(=O)NO)CCOCC3)cc2)c1 [Example 566] | – | – | 0.0657 µM | 0.0188 µM
53 | O=C(NO)C1(S(=O)(=O)c2ccc(OCCCc3nnc(-c4ccncc4)o3)cc2)CCOCC1 [Example 568] | – | – | 0.021 µM | 0.0015 µM
54 | O=C(CCCOc1ccc(S(=O)(=O)C2(C(=O)NO)CCOCC2)cc1)Nc1cccc(-c2ccccc2)c1 [Example 571] | – | – | 0.0119 µM | 0.0016 µM
